Experimental data taken from publication PMC5028030, “Costimulatory Effects of an Immunodominant Parasite Antigen Paradoxically Prevent Induction of Optimal CD8 T Cell Protective Immunity” (PLoS Pathogens, 2016).
“Also recorded” adds a separate entry of the source. Peptide text beside a SMILES is read from it.

What was measured:
[1] = tested on: naïve CD8^+ T cells; assay: CD8^+ T cell costimulation assay; format: cell-based, BALB/c mouse; conditions: inhibitor added to TS/PMA activated CD8^+ T cell cultures
Experimental: (§1) Fig 6 TS enzymatic activity is associated with costimulatory effects. In panel A, enzymatic activities of WT and TSKd1 mutant proteins were determined in lysates and supernatants of 293T cells transfected with WT TS and TSKd1 null DNA using fluorometric TS enzymatic activity assays. […] CD8^+ T cells from naïve 4–5 week old BALB/c mice were purified by positive magnetic bead selection and incubated with suboptimal doses of PMA (12.5ng/ml) ± WT or TSKd1 null rTS. After 3 days, proliferation was measured by ^3H-Thymidine incorporation. Shown are incorporated ^3H-Thymidine counts per minute (CPM) above suboptimal PMA treatment alone. Similar TS costimulation assays using naïve CD8^+ T cells were conducted with CD45 inhibitor PTP or Src-family kinase inhibitor PP2 added (C). In panel D, increasing concentrations of TSKd1 peptide were added to constant amounts of WT TS in TS enzyme assays. […]
CD8^+ T cells purified by positive Miltenyi magnetic bead selection from naïve 4–5 week old BALB/c mice were added to 96-well flat bottom plates (2x10^5 cells/well) and stimulated with suboptimal doses of PMA (12.5 ng/ml) with or without recombinant WT vs TSKd1 null TS protein (25–100 μg/ml) similar to TS costimulatory assays conducted previously. […] Ultima Gold F scintillation fluid was added and filtermats counted using a Perkin Elmer TriLux MicroBeta 1450 instrument. […]

[2] = tested on: CD4^+ T cells; design: method as in manuscript in preparation; conditions: after TS vaccination; I-A^d-restricted; ref manuscript in preparation; cited from earlier work
[3] = target: WT TS (Trypanosoma cruzi, UniProt P23253); assay: Inhibition of TS enzymatic activity (MuNANA hydrolysis); format: biochemical
Experimental: as §1, with “alone.” for “alone. Similar TS costimulation assays using naïve CD8^+ T cells were conducted with CD45 inhibitor PTP or Src-family kinase inhibitor PP2 added (C). In panel D, increasing concentrations of TSKd1 peptide were added to constant amounts of WT TS in TS enzyme assays.”
Trans-sialidase enzymatic activity was assayed as described previously. […] The acid elutions were incubated at 95°C for 45 minutes, the reactions neutralized with glycine/NaOH (pH 10) and released 4-MU measured by fluorescence emission at 450nm and compared to a standard curve. […] The reaction was continuously monitored in a SpectraMax i3 Multi-Mode Detection Platform (Molecular Devices) after pre-incubation of the enzyme with the peptide for 10 min at room temperature. The residual activity at each concentration of TSKd1 was obtained by dividing the slope calculated at each concentration of TSKd1 (Vi) by the initial velocity determined in the absence of peptide (V0). […]

Chain of WT TS (P23253 whole entry): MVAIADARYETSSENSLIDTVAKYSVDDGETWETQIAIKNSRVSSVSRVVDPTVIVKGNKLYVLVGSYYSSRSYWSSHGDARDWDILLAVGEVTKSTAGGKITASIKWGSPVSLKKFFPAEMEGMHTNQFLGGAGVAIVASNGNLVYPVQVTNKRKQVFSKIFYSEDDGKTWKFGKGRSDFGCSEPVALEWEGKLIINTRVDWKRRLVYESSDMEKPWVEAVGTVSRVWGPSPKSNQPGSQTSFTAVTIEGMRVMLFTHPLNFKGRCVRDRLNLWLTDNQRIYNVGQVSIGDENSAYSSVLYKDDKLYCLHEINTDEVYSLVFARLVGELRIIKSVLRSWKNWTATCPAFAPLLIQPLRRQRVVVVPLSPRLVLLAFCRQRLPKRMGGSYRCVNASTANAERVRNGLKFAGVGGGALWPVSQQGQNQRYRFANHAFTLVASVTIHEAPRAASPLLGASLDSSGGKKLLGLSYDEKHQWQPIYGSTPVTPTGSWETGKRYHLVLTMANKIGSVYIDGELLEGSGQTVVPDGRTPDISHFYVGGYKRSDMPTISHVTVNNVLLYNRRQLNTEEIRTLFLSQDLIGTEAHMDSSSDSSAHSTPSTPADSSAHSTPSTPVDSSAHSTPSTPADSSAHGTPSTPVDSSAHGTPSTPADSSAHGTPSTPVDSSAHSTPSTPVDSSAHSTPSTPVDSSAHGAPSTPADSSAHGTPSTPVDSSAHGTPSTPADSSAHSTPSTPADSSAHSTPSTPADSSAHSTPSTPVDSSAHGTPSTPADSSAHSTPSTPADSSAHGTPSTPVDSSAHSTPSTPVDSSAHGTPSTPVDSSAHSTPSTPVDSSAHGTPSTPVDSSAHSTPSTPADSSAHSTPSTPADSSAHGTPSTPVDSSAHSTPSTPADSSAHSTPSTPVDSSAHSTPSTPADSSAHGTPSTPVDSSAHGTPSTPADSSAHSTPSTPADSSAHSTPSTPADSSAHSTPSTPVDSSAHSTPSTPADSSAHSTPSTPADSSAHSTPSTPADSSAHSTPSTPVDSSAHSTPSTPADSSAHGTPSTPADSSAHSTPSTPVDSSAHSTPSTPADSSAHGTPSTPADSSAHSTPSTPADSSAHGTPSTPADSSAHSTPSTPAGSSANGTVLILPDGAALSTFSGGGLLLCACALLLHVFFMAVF

CC(C)(C)C(=O)Nc1ccc2c(c1)C(=O)C(=O)c1ccccc1-2 [PTP, N-[(9-10-dioxo-9,10-dihydro-phenanthren-2-yl)-2,2-dimethyl-propionamide]]
inhibition of TS costimulatory activity [1]: blocked; also recorded: prevent co-stimulation of naïve CD8^+ T cells

KVTERVVHSFRLPALVNV [p7]
CD4^+ T cell response to peptide [2]: most potent CD4^+ T cell responses of any peptide tested

CC[C@H](C)[C@H](N)C(=O)N[C@@H](Cc1ccc(O)cc1)C(=O)N[C@@H](CC(N)=O)C(=O)N[C@H](C(=O)NCC(=O)N[C@@H](CCC(N)=O)C(=O)N[C@H](C(=O)N[C@@H](CO)C(=O)N[C@H](C(=O)O)[C@@H](C)CC)C(C)C)C(C)C [TSKd1, IYNVGQVSI] (H-IYNVGQVSI-OH)
IC50 [3]: 20 ± 3 µM
